Source: patent US9963467B2, “Boronic acid derivatives and therapeutic uses thereof” (Rempex Pharmaceuticals, Inc., priority 2014, dated 2018)

Legend:
KP1009 (CTX-M-15) [1] = assay: Tigemonam potentiation (MPC@4), KP1009; type: cell-based; conditions: BLI with tigemonam at 4 μg/mL
Pa AmpC = Pa AmpC (Pseudomonas aeruginosa, UniProt P24735); assay: Ki, nitrocefin cleavage by purified enzyme, Pa AmpC; type: biochemical; conditions: nitrocefin reporter substrate; read-out: Ki (Pa AmpC, NCF)
Outline: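 Kinetic read at 490 nm (every 10 sec, 10 min) of nitrocefin cleavage; purified enzyme preincubated 10 min at room temperature with inhibitor series; Ki determined.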

KP1005 (CTX-M-14) [2] = assay: Aztreonam potentiation (MPC@4), KP1005; type: cell-based; conditions: BLI with aztreonam at 4 μg/mL
KP1010 (SHV-12) [3] = assay: Tigemonam potentiation (MPC@4), KP1010; type: cell-based
KP1009 (CTX-M-15) [4] = assay: organism not typed; type: cell-based
EC1010 (CMY-6) [5] = assay: organism not typed; type: cell-based
KP1004 (KPC-2) = assay: Biapenem potentiation (MPC@1), KP1004; conditions: BLI with biapenem at 1 μg/mL
KP1086 (OXA-48) = assay: Biapenem potentiation (MPC@1), KP1086; conditions: BLI with biapenem at 1 μg/mL
KP1010 (SHV-12) [6] = assay: Aztreonam potentiation (MPC@4), KP1010; type: cell-based
ECL1002 [7] = assay: Aztreonam potentiation (MPC@4), ECL1002; type: cell-based; conditions: BLI with aztreonam at 4 μg/mL
KP1005 (CTX-M-14) [8] = assay: Tigemonam potentiation (MPC@4), KP1005; type: cell-based; conditions: BLI with tigemonam at 4 μg/mL
ec308 (SHV-5) [9] = assay: Tigemonam potentiation (MPC@4), ec308; type: cell-based
ECL1002 [10] = assay: Tigemonam potentiation (MPC@4), ECL1002; type: cell-based; conditions: BLI with tigemonam at 4 μg/mL
ec302 (TEM-10) [11] = assay: Tigemonam potentiation (MPC@4), ec302; type: cell-based
ec308 (SHV-5) [12] = assay: Aztreonam potentiation (MPC@4), ec308; type: cell-based; conditions: BLI with aztreonam at 4 μg/mL
ec302 (TEM-10) [13] = assay: Aztreonam potentiation (MPC@4), ec302; type: cell-based; conditions: BLI with aztreonam at 4 μg/mL
P99 = P99 (Enterobacter cloacae, UniProt P05364); assay: Ki, nitrocefin cleavage by purified enzyme, P99; type: biochemical; conditions: nitrocefin reporter substrate; read-out: Ki (P99, NCF)
Outline: (§1)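 Purified enzyme was preincubated with a range of inhibitor concentrations in reaction buffer for 10 min at room temperature. Nitrocefin was then added and its cleavage followed at 490 nm every 10 sec for 10 min.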

CTX-M-14 = CTX-M-14 (Escherichia coli, UniProt Q9L5C7); assay: Ki, nitrocefin cleavage by purified enzyme, CTX-M-14; type: biochemical; conditions: nitrocefin reporter substrate; read-out: Ki (CTX-M-14, NCF)
Outline: as §1

KPC-2 = KPC-2 (Klebsiella pneumoniae, UniProt Q9F663); assay: Ki, nitrocefin cleavage by purified enzyme, KPC-2; type: biochemical; conditions: nitrocefin reporter substrate; read-out: Ki (KPC-2, NCF)
Outline: as §1

EC1010 (CMY-6) [14] = assay: Tigemonam potentiation (MPC@4), EC1010; type: cell-based; conditions: BLI with tigemonam at 4 μg/mL
OXA-48 = OXA-48 (Klebsiella pneumoniae, UniProt Q6XEC0); assay: Ki, nitrocefin cleavage by purified enzyme, OXA-48; type: biochemical; conditions: nitrocefin reporter substrate; read-out: Ki (OXA-48, NCF)
Outline: as §1

SHV-12 = SHV-12 (Klebsiella pneumoniae, UniProt P0AD64, E235K/G234S/L31Q); assay: Ki, nitrocefin cleavage by purified enzyme, SHV-12; type: biochemical; conditions: nitrocefin reporter substrate; read-out: Ki (SHV-12, NCF)
Outline: as §1

Pa AmpC, sequence (P24735 27-397): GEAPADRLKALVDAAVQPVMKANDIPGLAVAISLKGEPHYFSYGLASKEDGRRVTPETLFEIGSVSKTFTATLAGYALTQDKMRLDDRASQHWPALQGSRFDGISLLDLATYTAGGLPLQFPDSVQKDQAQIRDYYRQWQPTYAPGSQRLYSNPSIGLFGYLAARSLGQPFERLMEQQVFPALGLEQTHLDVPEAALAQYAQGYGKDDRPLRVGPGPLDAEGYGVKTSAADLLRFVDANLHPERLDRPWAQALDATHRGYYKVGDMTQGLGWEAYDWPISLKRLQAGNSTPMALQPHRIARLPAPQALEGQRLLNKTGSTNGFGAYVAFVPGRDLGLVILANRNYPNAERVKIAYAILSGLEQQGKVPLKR
SHV-12, sequence (P0AD64 22-286 L31Q/G234S/E235K): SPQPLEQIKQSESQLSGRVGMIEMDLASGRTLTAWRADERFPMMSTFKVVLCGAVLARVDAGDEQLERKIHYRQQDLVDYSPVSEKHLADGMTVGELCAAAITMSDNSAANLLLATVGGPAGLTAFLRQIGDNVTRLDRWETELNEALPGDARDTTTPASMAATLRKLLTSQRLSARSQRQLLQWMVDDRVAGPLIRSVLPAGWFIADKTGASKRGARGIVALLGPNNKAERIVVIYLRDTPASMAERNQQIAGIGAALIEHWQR
KPC-2, sequence (Q9F663 25-293, looked up, species assumed): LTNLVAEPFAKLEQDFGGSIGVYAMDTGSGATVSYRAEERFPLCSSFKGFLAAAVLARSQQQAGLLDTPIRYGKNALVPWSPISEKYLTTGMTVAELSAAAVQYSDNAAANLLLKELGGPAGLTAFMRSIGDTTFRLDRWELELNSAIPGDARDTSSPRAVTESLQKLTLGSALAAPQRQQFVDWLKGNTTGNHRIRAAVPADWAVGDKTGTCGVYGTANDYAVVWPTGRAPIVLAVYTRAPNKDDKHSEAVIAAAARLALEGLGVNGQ
P99, sequence (P05364 21-381): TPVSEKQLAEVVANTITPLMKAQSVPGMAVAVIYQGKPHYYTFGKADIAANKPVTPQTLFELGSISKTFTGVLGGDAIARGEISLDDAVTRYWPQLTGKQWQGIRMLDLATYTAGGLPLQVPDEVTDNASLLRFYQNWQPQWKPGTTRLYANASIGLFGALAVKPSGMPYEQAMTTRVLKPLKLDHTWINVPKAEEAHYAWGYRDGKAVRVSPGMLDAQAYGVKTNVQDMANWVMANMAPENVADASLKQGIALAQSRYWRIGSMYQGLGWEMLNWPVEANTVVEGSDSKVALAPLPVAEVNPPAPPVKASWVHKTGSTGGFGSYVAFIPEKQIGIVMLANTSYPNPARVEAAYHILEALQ
OXA-48, sequence (Q6XEC0 23-265, looked up, species assumed): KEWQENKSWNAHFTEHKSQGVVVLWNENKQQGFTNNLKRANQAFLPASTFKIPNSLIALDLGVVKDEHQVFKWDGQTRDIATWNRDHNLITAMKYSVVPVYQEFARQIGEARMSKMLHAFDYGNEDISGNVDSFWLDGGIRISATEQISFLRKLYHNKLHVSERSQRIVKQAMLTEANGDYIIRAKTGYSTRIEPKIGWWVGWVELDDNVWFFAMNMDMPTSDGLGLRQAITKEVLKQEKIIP
CTX-M-14, sequence (Q9L5C7 29-291): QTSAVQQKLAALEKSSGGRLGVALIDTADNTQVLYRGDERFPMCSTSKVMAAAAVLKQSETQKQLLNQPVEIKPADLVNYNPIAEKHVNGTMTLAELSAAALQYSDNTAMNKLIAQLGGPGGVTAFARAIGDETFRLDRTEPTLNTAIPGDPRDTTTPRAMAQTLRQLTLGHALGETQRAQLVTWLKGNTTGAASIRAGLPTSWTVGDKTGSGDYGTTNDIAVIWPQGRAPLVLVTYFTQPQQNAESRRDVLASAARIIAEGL

Row | SMILES | TIG MPC4 CTX-M-15 KP1009 (KP1009 (CTX-M-15) [1]) | Ki (Pa AmpC) [nM] | AZT MPC4 CTX-M-14 KP1005 (KP1005 (CTX-M-14) [2]) | TIG MPC4 SHV-12 KP1010 (KP1010 (SHV-12) [3]) | AZT MPC4 CTX-M-15 KP1009 (KP1009 (CTX-M-15) [4]) | AZT MPC4 CMY-6 EC1010 (EC1010 (CMY-6) [5]) | BPM MPC1 KP1004 KPC-2 (KP1004 (KPC-2)) | BPM MPC1 OXA-48 KP1086 (KP1086 (OXA-48)) | AZT MPC4 ECL1002 (ECL1002 [7]) | TIG MPC4 CTX-M-14 KP1005 (KP1005 (CTX-M-14) [8]) | TIG MPC4 SHV-5 ec308 (ec308 (SHV-5) [9]) | TIG MPC4 ECL1002 (ECL1002 [10]) | TIG MPC4 TEM-10 ec302 (ec302 (TEM-10) [11]) | AZT MPC4 SHV-5 ec308 (ec308 (SHV-5) [12]) | also measured
1 | CSCC(=O)N[C@H]1Cc2cccc(C(=O)O)c2OB1O [A, reference compound] | X (MIC of less than 1 μg/mL) | 1 to 10 | X (MIC of less than 1 ng/mL) | X (key: X: MIC of less than 1 μg/mL; Y: MIC of 1 μg/mL to 10 μg/mL; Z: MIC of greater than 10 μg/mL) | X (key: X: MIC of less than 1 ng/mL; Y: MIC of 1 μg/mL to 10 μg/mL; Z: MIC of greater than 10 μg/mL) | X (key: X: MIC of less than 1 ng/mL; Y: MIC of 1 μg/mL to 10 μg/mL; Z: MIC of greater than 10 μg/mL) | X (MIC of less than 1 μg/mL) | Y (MIC of 1 μg/mL to 10 μg/mL) | X (MIC of less than 1 ng/mL) | Y (MIC of 1 μg/mL to 10 μg/mL) | X (key: X: MIC of less than 1 μg/mL; Y: MIC of 1 μg/mL to 10 μg/mL; Z: MIC of greater than 10 μg/mL) | X (MIC of less than 1 μg/mL) | Y (key: X: MIC of less than 1 ng/mL; Y: MIC of 1 μg/mL to 10 μg/mL; Z: MIC of greater than 10 μg/mL) | X (MIC of less than 1 ng/mL) | AZT MPC4 SHV-12 KP1010 (KP1010 (SHV-12) [6]): X (key: X: MIC of less than 1 ng/mL; Y: MIC of 1 μg/mL to 10 μg/mL; Z: MIC of greater than 10 μg/mL)
2 | O=CN[C@H]1Cc2ccc(F)c(C(=O)O)c2OB1O [Compound 6, (R)-7-fluoro-3-formamido-2-hydroxy-3,4-dihydro-2H-benzo[e][1,2]oxaborinine-8-carboxylic acid] | Y (MIC of 1 μg/mL to 10 μg/mL) | > 10 | Y (MIC of 1 μg/mL to 10 μg/mL) | Y (key: X: MIC of less than 1 ng/mL; Y: MIC of 1 μg/mL to 10 μg/mL; Z: MIC of greater than 10 μg/mL) | Y (key: X: MIC of less than 1 ng/mL; Y: MIC of 1 μg/mL to 10 μg/mL; Z: MIC of greater than 10 μg/mL) | Y (key: X: MIC of less than 1 ng/mL; Y: MIC of 1 μg/mL to 10 μg/mL; Z: MIC of greater than 10 μg/mL) | X (MIC of less than 1 μg/mL) | Y (MIC of 1 μg/mL to 10 μg/mL) | Y (MIC of 1 μg/mL to 10 μg/mL) | Y (MIC of 1 μg/mL to 10 μg/mL) | Y (key: X: MIC of less than 1 ng/mL; Y: MIC of 1 μg/mL to 10 μg/mL; Z: MIC of greater than 10 μg/mL) | X (MIC of less than 1 μg/mL) | Z (key: X: MIC of less than 1 ng/mL; Y: MIC of 1 μg/mL to 10 μg/mL; Z: MIC of greater than 10 μg/mL) | Y (MIC of 1 μg/mL to 10 μg/mL) | AZT MPC4 TEM-10 ec302 (ec302 (TEM-10) [13]): Y (MIC of 1 μg/mL to 10 μg/mL); Ki (P99): > 10 nM; Ki (CTX-M-14): < 1 nM; Ki (KPC-2): > 10 nM; TIG MPC4 CMY-6 EC1010 (EC1010 (CMY-6) [14]): X (MIC of less than 1 μg/mL); Ki (OXA-48): 1 to 10 nM; Ki (SHV-12): < 1 nM
